{"source": "patent US10215751B2", "about": "“Carboxy X rhodamine analogs” (PROMEGA CORPORATION, priority 2011, dated 2019)", "biological_target": "T1, NanoLuc luciferase-PKC alpha fusion protein (Homo sapiens, UniProt P17252)", "T1 construct": "expressed in transfected cells; host or cells: HEK293 cells, transient transfection with pF5 plasmid", "assay": "BRET negative control with cells expressing NanoLuc fused to an irrelevant kinase", "assay_type": "cell-based", "conditions": "HEK293 cells expressing NanoLuc-PKCalpha (negative control)", "experimental": "HEK293 cells (20,000 cells per well in 96-well format) were transiently transfected (Fugene HD, Promega Corporation) with pF5 plasmid DNA (Promega Corporation) encoding a NanoLuc® luciferase-p38alpha kinase fusion protein. As a negative control, some cells were transfected with a pF5 plasmids DNA encoding a NanoLuc luciferase-PKC alpha fusion protein. On the second day post transfection, the cell medium was replaced with serum-free Opti-MEM (Life Technologies) with or without 50 ug/ml digitonin. […] A furimazine substrate (PBI 3939), a substrate for the NanoLuc luciferase, then was added to cells to a final concentration of 20 uM. BRET ratios were recorded using a Varioskan luminometer at the following wavelengths: 630 nm (acceptor)/450 nm (donor). Acceptor/donor values were used to determine BRET ratio (FIGS. 21 and 22).", "data": [{"smiles": "Cc1ccc(-n2nc(C(C)(C)C)cc2NC(=O)Nc2ccc(OCCN3CCOCC3)c3ccccc23)cc1", "note": "[BIRB796, reference compound]", "values": [{"measurement": "Effect of unlabeled BIRB796 on BRET signal with PBI 4838", "value": "not affected"}]}]}
